From ChEMBL document CHEMBL4627258, “Photo effect on the CD1d-binding ability of azobenzene-attached analogues of α-GalCer” (Bioorg Med Chem Lett, 2020)

Tests used:
Type in all cases: protein assay
[1] = biological target: T1, Antigen-presenting glycoprotein CD1d (Mus musculus) (UniProt P11609+P11610); assay: Binding affinity to CD1d in Traj18 knock out C57BL/6 mouse assessed as restriction ratio for reduction in iNKT/CD1d interaction by FACS analysis relative to control
[2] = biological target: T1, Antigen-presenting glycoprotein CD1d (Mus musculus); assay: Binding affinity to WTB6 mouse thymus CD1d assessed as restriction ratio for reduction in iNKT/CD1d interaction by FACS analysis relative to control
[3] = biological target: T1, Antigen-presenting glycoprotein CD1d (Mus musculus); assay: Binding affinity to WTB6 mouse spleen CD1d assessed as restriction ratio for reduction in iNKT/CD1d interaction by FACS analysis relative to control

Ratio [1] [%] | Ratio [2] [%] | Ratio [3] [%] | SMILES
< 0.02 | 0.4 | 0.42 | CCCCCCCCCCCCCC[C@@H](O)[C@@H](O)[C@H](CO[C@H]1O[C@H](CO)[C@H](O)[C@H](O)[C@H]1O)NC(=O)CCCCCCOc1ccc(/N=N\c2ccccc2)cc1
< 0.02 | 0.36 | 0.5 | CCCCCCCCCCCCCC[C@@H](O)[C@@H](O)[C@H](CO[C@H]1O[C@H](CO)[C@H](O)[C@H](O)[C@H]1O)NC(=O)CCCCCCCCCCOc1ccc(/N=N/c2ccccc2)cc1
< 0.02 | 0.37 | 0.48 | CCCCCCCCCCCCCC[C@@H](O)[C@@H](O)[C@H](CO[C@H]1O[C@H](CO)[C@H](O)[C@H](O)[C@H]1O)NC(=O)CCCCCCCCOc1ccc(/N=N\c2ccccc2)cc1
< 0.02 | 0.28 | 0.4 | CCCCCCCCCCCCCC[C@@H](O)[C@@H](O)[C@H](CO[C@H]1O[C@H](CO)[C@H](O)[C@H](O)[C@H]1O)NC(=O)CCCCCCCCOc1ccc(/N=N/c2ccccc2)cc1
< 0.02 | 0.35 | 0.31 | CCCCCCCCCCCCCC[C@@H](O)[C@@H](O)[C@H](CO[C@H]1O[C@H](CO)[C@H](O)[C@H](O)[C@H]1O)NC(=O)CCCCCCOc1ccc(/N=N/c2ccccc2)cc1
0.28 | 0.09 | 0.06 | CCCCCCCCCCCCCC[C@@H](O)[C@@H](O)[C@H](CO[C@H]1O[C@H](CO)[C@H](O)[C@H](O)[C@H]1O)NC(=O)CCCCOc1ccc(/N=N/c2ccccc2)cc1
0.57 | 0.05 | 0.05 | CCCCCCCCCCCCCC[C@@H](O)[C@@H](O)[C@H](CO[C@H]1O[C@H](CO)[C@H](O)[C@H](O)[C@H]1O)NC(=O)CCCCOc1ccc(/N=N\c2ccccc2)cc1
< 0.02 | 0.44 | 0.57 | CCCCCCCCCCCCCC[C@@H](O)[C@@H](O)[C@H](CO[C@H]1O[C@H](CO)[C@H](O)[C@H](O)[C@H]1O)NC(=O)CCCCCCCCCCOc1ccc(/N=N\c2ccccc2)cc1
< 0.02 | 0.45 | 0.66 | CCCCCCCCCCCCCCCCCCCCCCCCCC(=O)N[C@@H](CO[C@H]1O[C@H](CO)[C@H](O)[C@H](O)[C@H]1O)[C@H](O)[C@H](O)CCCCCCCCCCCCCC
